{
  "source": "patent US20180119123A1",
  "about": "“CRISPR/CAS-RELATED METHODS AND COMPOSITIONS FOR TREATING HIV INFECTION AND AIDS” (EDITAS MEDICINE, INC., priority 2015, published 2018)",
  "key": {"CD34^+ HSCs": {"tested_on": "CD34^+ HSCs", "experiment": "Hematopoietic colony forming cell (CFC) assay in Methocult medium", "assay_type": "cell-based, human", "conditions": "Nucleofection with wild-type Cas9 and CCR5-U43 gRNA plasmid DNA + UM171; two weeks", "method": "(§1) Human CD34^+ HSCs cells from mobilized peripheral blood (AllCells) were thawed into StemSpan Serum-Free Expansion Medium (SFEM™, StemCell Technologies) containing 100 ng/mL each of the following cytokines: human stem cell factor (SCF), thrombopoietin (TPO), and flt-3 ligand (FL) (all from Peprotech). Cells were grown for 3 days in a humidified incubator and 5% CO2 20% O2. […] The published use of UM171 involved prolonged exposure of HSCs to the small molecule for ex vivo expansion of HSCs. In the current experiment, HSCs were exposed to UM171 for 2 hours before and 24 hours after delivery of Cas9 and gRNA plasmid DNA. This UM171 treatment protocol was based on pilot studies performed by the inventors that indicated acute pre-treatment with UM171 before lentivirus vector mediated gene delivery improved HSC viability compared to HSCs treated with vehicle (dimethylsulfoxide, DMSO, Sigma) alone. After the 2-hour pretreatment with UM171, 1 million CD34^− HSCs were Nucleofected™ with the Amaxa™ 4D Nucleofector™ device (Lonza), Program EO100 using components of the P3 Primary Cell 4D-Nucleofector Kit™ (Lonza) according to the manufacturer's instructions. Briefly, one million cells were suspended in Nucleofector™ solution and the following amounts of plasmid DNA were added to the cell suspension: 1250 ng plasmid expressing CCR5 gRNA (CCR5-U43) from the human U6 promoter and 3750 ng plasmid expressing wild-type S. pyogenes Cas 9 transcriptionally regulated by the CMV promoter. After Nucleofection™, cells were plated into Stemspan-SFEM™ supplemented with SCF, TPO, FL and 40 nM UM171. After overnight incubation, HSCs were plated in Stemspan-SFEM™ plus cytokines without UM171. At 96 hours after Nucleofection™, CD34^+ cells were counted for by trypan blue exclusion and divided into 3 portions for the following analyses: a) flow cytometry analysis for assessment of viability by co-staining with 7-Aminoactinomycin-D (7-AAD) and allophycocyanin (APC)-conjugated Annexin-V antibody (ebioscience); b) flow cytometry analysis for maintenance of HSC phenotype (after co-staining with phycoerythrin (PE)-conjugated anti-human CD34 antibody and fluorescein isothicyanate (FITC)-conjugated anti-human CD90, both from BD Bioscience; c) hematopoietic colony forming cell (CFC) analysis by plating 1500 cells in semi-solid methylcellulose based Methocult medium (StemCell Technologies) that supports differentiation of erythroid and myeloid blood cell colonies from HSCs and serves as a surrogate assay to evaluate HSC multipotency and differentiation potential ex vivo; d) genomic DNA analysis for detection of editing at the CCR5 locus. Genomic DNA was extracted from HSCs 96 hours after Nucleofection™, and CCR5 locus-specific PCR reactions were performed.\nTo evaluate maintenance of HSC potency and differentiation potential, two weeks after plating CD34^+ HSCs in CFC assays, hematopoietic activity was quantified based on scoring the HSC progeny by enumerating the total number of hematopoietic colony forming units (CFU) and the frequencies of specific blood cell phenotypes, including: mixed myeloid/erythroid (Granulocyte-erythroid-monocyte macrophage, CFU-GEMM), myeloid (CFU-macrophage (M), granulocyte-macrophage (CFU-GM)) and erythroid (CFU-E) colonies. CD34^+ HSCs that were Nucleofected™ after UM171 pre-treatment maintained CFC potential compared to un-Nucleofected™ HSCs (Table 12). In contrast, CD34^+ HSCs that were Nucleofected™ without UM171 pre-treatment had reduced CFC potential (lower total CFC counts and reduced numbers of mixed-phenotype colonies (CFU-GEMM) and erythroid colonies (CFU-E)) in comparison to un-Nucleofected™ CD34^+ HSCs.\nHuman CD34^+ HSCs cells from mobilized peripheral blood (AllCells) were thawed into StemSpan Serum-Free Expansion Medium (SFEM, StemCell Technologies) containing 100 ng/mL each of the following cytokines: human stem cell factor (SCF), thrombopoietin (TPO), and flt-3 ligand (FL) (all from Peprotech). […]"}, "[1]": {"tested_on": "human mobilized peripheral blood CD34^+ HSCs", "experiment": "Viability by 7-AAD / Annexin-V flow cytometry 96 hours after Nucleofection", "assay_type": "cell-based", "method": "as §1, with “After the 2-hour pretreatment with UM171, 1 million CD34^− HSCs were Nucleofected™ with the Amaxa™ 4D Nucleofector™ device (Lonza), Program EO100 using components of the P3 Primary Cell 4D-Nucleofector Kit™ (Lonza) according to the manufacturer's instructions. Briefly, one million cells were suspended in Nucleofector™ solution and the following amounts of plasmid DNA were added to the cell suspension: 1250 ng plasmid expressing CCR5 gRNA (CCR5-U43) from the human U6 promoter and 3750 ng plasmid expressing wild-type S. pyogenes Cas 9 transcriptionally regulated by the CMV promoter. After Nucleofection™, cells were plated into Stemspan-SFEM™ supplemented with SCF, TPO, FL and 40 nM UM171. After overnight incubation, HSCs were plated in Stemspan-SFEM™ plus cytokines without UM171.” left out, “Genomic DNA was extracted from HSCs 96 hours after Nucleofection™, and CCR5 locus-specific PCR reactions were performed.” left out"}},
  "note": "Entries after “also recorded” stand apart in the source; their conditions may differ.",
  "data": [
    {"compound": "Cn1nnc(-c2ccc3c(c2)[nH]c2nc(Cc4ccccc4)nc(N[C@H]4CC[C@H](N)CC4)c23)n1", "note": "[UM171, (1r,4r)-N1-(2-benzyl-7-(2-methyl-2H-tetrazol-5-yl)-9H-pyrimido[4,5-b]indol-4-yl)cyclohexane-1,4-diamine]", "values": [
      {"measurement": "Number of colony forming units: E", "setting": "CD34^+ HSCs", "value": "92 colony forming units per 1500 CD34^+ HSCs plated"},
      {"measurement": "Number of colony forming units: G", "setting": "CD34^+ HSCs", "value": "40 colony forming units per 1500 CD34^+ HSCs plated"},
      {"measurement": "Number of colony forming units: GEMM", "setting": "CD34^+ HSCs", "value": "20 colony forming units per 1500 CD34^+ HSCs plated"},
      {"measurement": "Number of colony forming units: GM", "setting": "CD34^+ HSCs", "value": "32 colony forming units per 1500 CD34^+ HSCs plated"},
      {"measurement": "Number of colony forming units: M", "setting": "CD34^+ HSCs", "value": "64 colony forming units per 1500 CD34^+ HSCs plated"},
      {"measurement": "Number of colony forming units: Total", "setting": "CD34^+ HSCs", "value": "228 colony forming units per 1500 CD34^+ HSCs plated"},
      {"measurement": "Effect of UM171 on CD34+ HSC viability, survival and proliferation after Nucleofection", "setting": "[1]; 40 nM UM171, 2 hours before and 24 hours after Nucleofection with Cas9 and CCR5-U43 gRNA plasmid DNA", "value": "preserved CD34^+ HSC viability; also recorded: critical for maintenance of HSC survival and proliferation"},
      {"measurement": "Effect of UM171 on HSC survival and proliferation after Nucleofection", "setting": "[1]; pre-treatment and short-term (24-hour) co-culture, Cas9 and CXCR4 gRNA plasmid DNA", "value": "critical for maintenance of HSC survival and proliferation"}
    ]}
  ]
}
